Among the data in article PMC12856317, “A reversible feedback mechanism regulating mitochondrial heme synthesis” (The Journal of Biological Chemistry, 2025) are mode of inhibition, EC50 and apoenzyme activity restored values, retold here.

Holding throughout (assay): Inhibitor competition, apoenzyme reactivation by PLP with hemin
Format in all cases: biochemical

Experiment [1] concerns the target T1, apoALAS2 ΔN (residues 75–587) (Homo sapiens, UniProt P22557).
T1 construct: a truncation without HRM3 (ΔN, residues 75–587); His6-SUMO (N, cleaved yes); made in house; host or cells: Escherichia coli BL21-Codon Plus (DE3)-RIL
T1 sequence (P22557 75-587): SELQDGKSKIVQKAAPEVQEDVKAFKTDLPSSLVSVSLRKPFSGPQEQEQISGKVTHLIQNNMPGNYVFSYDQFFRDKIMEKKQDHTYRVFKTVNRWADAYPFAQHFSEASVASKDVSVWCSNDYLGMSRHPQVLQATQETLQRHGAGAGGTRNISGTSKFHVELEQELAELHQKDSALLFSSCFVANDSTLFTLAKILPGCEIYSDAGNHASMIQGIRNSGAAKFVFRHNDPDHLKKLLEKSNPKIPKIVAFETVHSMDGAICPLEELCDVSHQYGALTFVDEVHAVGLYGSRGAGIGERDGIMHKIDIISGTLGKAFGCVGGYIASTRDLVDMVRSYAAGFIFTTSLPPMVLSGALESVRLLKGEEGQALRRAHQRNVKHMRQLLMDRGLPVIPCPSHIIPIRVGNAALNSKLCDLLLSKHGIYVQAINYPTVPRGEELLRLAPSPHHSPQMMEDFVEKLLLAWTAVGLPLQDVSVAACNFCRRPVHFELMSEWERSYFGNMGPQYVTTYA
As to the method:
(§1) A discontinuous colorimetric activity assay adapted from Shoolingin-Jordan et al. and Bailey et al. was used to measure the enzyme activity ([48], [74]). The reaction was initiated by adding 100 nM purified enzyme to 50 mM potassium phosphate, pH 7.0, 10 mM MgCl2, 1 mM DTT, 100 mM glycine, and 300 μM succinyl-CoA (175 μl total). The reaction was incubated at 37 °C for 15 min and terminated with 100 μl of cold 10% trichloroacetic acid. The precipitated protein was removed by centrifugation for 5 min at 13,000g, and 240 μl of the supernatant was mixed with 240 μl of 1 M sodium acetate, pH 4.6. To derivatize ALA, 20 μl of acetylacetone was added to the mixture and boiled at 100 °C for 10 min. After the sample was cooled for 20 min, 100 μl aliquots were transferred into a clear 96-well plate in triplicate. An equal volume of Ehrlich’s reagent (p-Dimethylaminobenzaldehyde, DMAB) was added to each well, and the absorbance was monitored at 553 nm using a microplate reader (Thermo Fisher Scientific). The peak absorbance value was converted to molar ALA concentration using ε553 = 60,400 M^−1 cm^−1.
(§2) For inhibitor competition experiments, the apoenzymes were preincubated with hemin or PLP (0–100 μM) for 15 min at 25 °C in the dark before initiating the reaction. Next, either PLP or hemin (0–100 μM) was titrated into the reactions to measure enzyme activation after hemin inhibition or enzyme inhibition of the PLP-treated apoenzyme, respectively. For succinyl-CoA:hemin competition analyses, the WT holoenzyme was mixed with hemin (0, 25, 50, and 100 μM), followed by the addition of increasing succinyl-CoA concentrations (0, 25, 50, 100, 250, and 500 μM). All experiments were performed with a minimum of three biological replicates, each with three technical replicates. Data were fit using nonlinear regression to generate an agonist dose-response curve (EC50) or an inhibitor dose-response curve (IC50). Lineweaver-Burk analysis was performed using the resulting kinetic parameters (Vmax and KM) in GraphPad Prism 10.

Experiment [2] addresses T2, apoALAS2 Cys-mut (C70A/C555A/C558A) (Homo sapiens, UniProt P22557, C555A/C558A/C70A).
T2 construct: Site-directed mutagenesis was performed on the mature ALAS2 (residues 54–587) construct to generate truncations and cysteine mutants; His6-SUMO (N, cleaved yes); made in house; host or cells: Escherichia coli BL21-Codon Plus (DE3)-RIL
T2 sequence (P22557 54-587 C70A/C555A/C558A): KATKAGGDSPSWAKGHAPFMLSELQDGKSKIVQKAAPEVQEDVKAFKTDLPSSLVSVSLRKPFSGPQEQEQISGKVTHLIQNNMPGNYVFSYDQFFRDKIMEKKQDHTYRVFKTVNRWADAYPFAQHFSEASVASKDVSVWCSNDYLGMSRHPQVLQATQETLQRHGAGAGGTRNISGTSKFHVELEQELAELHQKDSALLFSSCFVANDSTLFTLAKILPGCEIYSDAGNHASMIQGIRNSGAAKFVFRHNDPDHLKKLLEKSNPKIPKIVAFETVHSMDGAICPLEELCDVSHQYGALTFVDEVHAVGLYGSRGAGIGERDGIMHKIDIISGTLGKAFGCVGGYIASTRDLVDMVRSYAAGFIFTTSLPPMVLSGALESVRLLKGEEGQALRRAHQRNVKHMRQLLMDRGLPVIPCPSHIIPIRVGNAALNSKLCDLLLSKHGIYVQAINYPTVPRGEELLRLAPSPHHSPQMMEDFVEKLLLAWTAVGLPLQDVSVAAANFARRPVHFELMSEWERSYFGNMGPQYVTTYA
The protocol:
as §1, §2

Experiment [3] deals with T3, apoALAS2 ΔC (residues 54–547) (Homo sapiens, UniProt P22557).
T3 construct: a truncation without the C-terminal CXXC motif (ΔC, residues 54–547); His6-SUMO (N, cleaved yes); made in house; host or cells: Escherichia coli BL21-Codon Plus (DE3)-RIL
T3 sequence (P22557 54-547): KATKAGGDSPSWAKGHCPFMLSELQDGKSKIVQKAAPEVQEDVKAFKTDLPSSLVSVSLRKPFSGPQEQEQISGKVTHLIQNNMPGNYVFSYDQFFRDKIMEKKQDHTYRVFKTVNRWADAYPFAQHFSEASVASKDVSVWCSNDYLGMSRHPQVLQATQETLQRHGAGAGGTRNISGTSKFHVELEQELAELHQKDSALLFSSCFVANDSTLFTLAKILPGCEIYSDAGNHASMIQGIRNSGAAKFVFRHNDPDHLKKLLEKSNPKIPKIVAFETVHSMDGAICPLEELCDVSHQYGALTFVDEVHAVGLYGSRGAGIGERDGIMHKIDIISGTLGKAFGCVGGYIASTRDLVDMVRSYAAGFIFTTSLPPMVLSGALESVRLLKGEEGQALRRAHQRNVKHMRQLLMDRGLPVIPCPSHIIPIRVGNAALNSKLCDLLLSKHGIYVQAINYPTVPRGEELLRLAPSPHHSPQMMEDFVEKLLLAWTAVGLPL
The protocol:
as §1, §2

On to ferric chloride heme [hemin], for which the mode of inhibition entry in experiment [1] (ΔN, multiple heme concentrations (Fig. S4)) is recorded as “allosteric mixed inhibitor”; in experiment [2] (Cys-mut, multiple heme concentrations (Fig. S4)), “allosteric mixed inhibitor”; in experiment [3] (ΔC, multiple heme concentrations (Fig. S4)) it was “allosteric mixed inhibitor”.
Take `Cc1ncc(COP(=O)(O)O)c(C=O)c1O` [PLP]: the 50% effective concentration (EC50) – broadly, the concentration giving half of the maximal effect – in experiment [1] (ΔN apoALAS2, PLP titration in the presence of 25 μM hemin) came out at 4 ± 2 µM; in experiment [2] (Cys-mut apoALAS2, PLP titration in the presence of 50 μM hemin), 10 ± 4 µM; in experiment [3] (ΔC apoALAS2, PLP titration in the presence of 50 μM hemin) it was 9 ± 1 µM. For the same compound, in experiment [3] (ΔC apoenzyme preincubated with 50 μM heme, excess PLP), the apoenzyme activity restored is recorded as ~50%.
